Measurements: US4313943A, “7-Chloro-2,3-dihydro-5-phenyl-1-propargyl-1H-1,4-benzodiazepine-2-one, and a pharmaceutical composition thereof” (priority 1972, dated 1982)
Several values for one entry are separate records, joined by “and”; a condition that tells them apart may be missing. Identical values can stand only once. Entries after “also recorded” stand apart in the source; their conditions may differ.

Columns and labels:
[1] = Effect on muscular relaxation in mice (30° inclined screen, Randall); format: in vivo; conditions: for ED50: Mus musculus, po, muscular relaxation, read-out: ED50 (and C.L.)
Procedure: The method utilized was the procedure described by Randall (1961) using a 30° inclined screen.

[2] = Convulsions induced by pentamethylenetetrazol in rats; format: in vivo; conditions: for ED50: Rattus norvegicus, oral, protection against pentamethylenetetrazol, read-out: ED50 (and C.L.) (converted)
Procedure: The method utilized was according to the method published by Everett and Richards (1944) and Banziger (1965). The pentamethylenetetrazol was given subcutaneously (125 mg/kg) and the test compounds were given orally suspended in a 1% carboxymethyl cellulose solution.

[3] = test system: posterior amygdaloid complex; experiment: Amygdaloid after-discharge (stimulation of posterior amygdaloid complex); format: in vivo; conditions: 7.5 mg/kg intragastric; for Duration of Amygdaloid After-Discharge: individual animals
Procedure: The test animals for this study were also prepared according to the technique described by Monnier and Gangloff (infra B, page 30) and the animals were kept in restraint cages in a relatively soundproof room.
The activity of test compounds 1 and 4 was assessed in identical groups of test animals for each compound, with identical numbers of animals for hippocampal after-discharges and for amygdaloid after-discharges. A dose of 7.5 mg/kg of each test compound was adminstered by the intragastric route. In each animal, after-discharges were triggered every 45 minutes after the administration of a test compound.
The stimulation consisted of a series of waves with a duration of 3 m sec., delivered at a frequency of 40 c/sec., with 5 seconds as the total duration of the stimulation. The shocks were delivered by a Neurovar neurostimulator (Alvar Electronic), coupled to a CRC cathode oscilloscope (type OC 343). Cerebral electric activity was recorded by REEGA MINI HUIT electroencephalograph (Alvar Electronic).

[4] = Acute toxicity in the mouse (oral); conditions: in vivo, mouse (male)
Procedure: (§1) The test compounds shown in Table 2 were administered orally to male mice and rats in the form of a suspension in a 1% solution of sodium carboxymethyl cellulose. The LD50 (lethal dose 50%) was calculated by the method of Litchfield and Wilcoxon.

[5] = Anti-convulsant activity in the mouse (convulsions induced by 1,5-pentamethylenetetrazole); format: in vivo; conditions: 30 min before pentamethylenetetrazole s.c.
Procedure: The inhibition of convulsions induced by 1,5-pentamethylenetetrazole was tested by the Clen method. The test compounds were administered orally to the mice, in the doses shown in Table 3, in the form of suspensions in 1% sodium carboxymethyl cellulose solution, and 30 minutes later the test animals were injected subcutaneously with […] of 1,5-pentamethylenetetrazole. The number of mice protected from lethal extensorial tonic spasms, per group of 10 test animals, was recorded.

[6] = Myorelaxant activity in the mouse (traction test); format: in vivo
Procedure: This was determined by the traction test of Joulon Courvoisier, following Boissier and Simon, in which the mouse is suspended by its front paws to a horizontal metal wire, and the animal's capacity to get up with its hind paws is observed. The test compounds were administered orally to the animals, in the doses shown in Table 5, as suspensions in 1% sodium carboxymethyl cellulose solution; and the animals were tested 30 minutes and 180 minutes after administration. The test animals were deemed to be myorelaxant if unable to get up within 5 seconds.

[7] = Hypnotic activity comparison (Janssen 1959); format: in vivo
Procedure: Toxicity in test animals to the test compounds in terms of LD50 after oral and intraperitoneal administration was determined according to the procedure of Litchfield and Wilcoxan (1949) and the hypnotic effect on test animals was determined in accordance with the method of Janssen (1959).

[8] = Potentiation of narcosis (hexobarbitone sodium) in the mouse, Winter method; format: in vivo; conditions: hexobarbitone sodium 80 mg/kg i.p., control 33.3
Procedure: The Winter method was used, in which a state of narcosis is induced by the intraperitoneal administration of 80 mg/kg of hexobarbitone sodium, and is assessed by the loss of the righting reflex in the test animal. […] orally to the animals, in doses shown in Table 4, as suspensions in 1% sodium carboxymethyl cellulose solution; and the prolongation of narcosis in the animals thus treated was observed, by comparison with controls which received only the hexobarbitone administration.

[9] = Acute toxicity in the rat (oral); conditions: in vivo
Procedure: as §1

[10] = Motor coordination in the rat (Rota-rod method, Dunham and Miya); format: in vivo
Procedure: The method of Dunham and Miya was used, which consists in placing the test animal on a rod rotating at 14 r.p.m., and recording the percentage of animals which fall off within 2 minutes. The test compound 1 was administered orally to the animals, in the various doses shown in Table 1, as a suspension in 1% sodium carboxymethyl cellulose solution. The animals were then tested 30 minutes and 60 minutes after the administration of the test compound.

C#CCN1C(=O)CN=C(c2ccccc2Cl)c2cc(Cl)ccc21 [Compound 4, 7-chloro-2,3-dihydro-5-(2-chlorophenyl)-1-propargyl-1,H-1,4-benzodiazepine-2-one]
% Relaxed Animals ([1]; 2 mg/kg/os): 40% | % Relaxed Animals ([1]; 8 mg/kg/os): 60% | % Relaxed Animals ([1]; 32 mg/kg/os): 80% | Potency Against Comp. 1 ([1]; C.L. (1.67-18.80), X^2 parallelism 2.03): 5.60 | ED50 [1]: 3.93 mg/kg | % Protected Animals ([2]; 6 mg/kg/os, pentamethylenetetrazol 125 mg/kg s.c.): 20% | % Protected Animals ([2]; 8.5 mg/kg/os, pentamethylenetetrazol 125 mg/kg s.c.): 60% | % Protected Animals ([2]; 12 mg/kg/os, pentamethylenetetrazol 125 mg/kg s.c.): 70% | ED50 [2]: 8.5 mg/kg | % Protected Animals ([2]; Time 90 min.): 37% | % Protected Animals ([2]; Time 120 min.): 18% | % Protected Animals ([2]; Time 180 min.): 0% | % Protected Animals ([2]; Time 240 min.): 0% | effect on amygdaloid after-discharge [3]: lasting inhibitory effect | Duration of Amygdaloid After-Discharge ([3]; 45 Mins.): 29 s and 43 s and 30 s and 35 s | Duration of Amygdaloid After-Discharge ([3]; 90 Mins.): 32 s and 46 s and 33 s and 40 s and 16 s | Duration of Amygdaloid After-Discharge ([3]; 135 Mins.): 35 s and 27 s and 40 s and 26 s | Duration of Amygdaloid After-Discharge ([3]; 180 Mins.): 33 s and 29 s and 48 s | Duration of Amygdaloid After-Discharge ([3]; 225 Mins.): 37 s and 35 s and 34 s and 41 s | Duration of Amygdaloid After-Discharge ([3]; 270 Mins.): 38 s and 42 s and 37 s and 39 s and 50 s

C#CCN1C(=O)CN=C(c2ccccc2)c2cc(Cl)ccc21 [Compound 1, 7-chloro-2,3-dihydro-5-phenyl-1-propargyl-1H-1,4-benzodiazepin-2-one]
LD50 [4]: 1300 mg/kg | % Relaxed Animals ([1]; 5 mg/kg/os): 10% | % Relaxed Animals ([1]; 10 mg/kg/os): 20% | % Relaxed Animals ([1]; 20 mg/kg/os): 50% | % Relaxed Animals ([1]; 40 mg/kg/os): 70% | ED50 [1]: 21.5 mg/kg | times less relaxant than compound 3 ([1]; mouse, in vivo): about 1.5 times | times less relaxant than compound 4 ([1]; mouse, in vivo): about 5.6 times | No. of Animals Protected ([5]; 0.5 mg/kg oral): 0/10 | No. of Animals Protected ([5]; 1.0 mg/kg oral): 5/10 | No. of Animals Protected ([5]; 2.0 mg/kg oral): 9/10 | Percentage of myorelaxant animals ([6]; 1.5 mg/kg oral, after 30 minutes): 20% | Percentage of myorelaxant animals ([6]; 1.5 mg/kg oral, after 180 minutes): 15% | Percentage of myorelaxant animals ([6]; 3.0 mg/kg oral, after 30 minutes): 60% | Percentage of myorelaxant animals ([6]; 3.0 mg/kg oral, after 180 minutes): 55% | Percentage of myorelaxant animals ([6]; 6.0 mg/kg oral, after 30 minutes): 80% | Percentage of myorelaxant animals ([6]; 6.0 mg/kg oral, after 180 minutes): 70% | % Protected Animals ([2]; 5 mg/kg/os, pentamethylenetetrazol 125 mg/kg s.c.): 10% | % Protected Animals ([2]; 10 mg/kg/os, pentamethylenetetrazol 125 mg/kg s.c.): 50% | % Protected Animals ([2]; 20 mg/kg/os, pentamethylenetetrazol 125 mg/kg s.c.): 80% | ED50 [2]: 10.6 mg/kg | % Protected Animals ([2]; Time 90 min.): 48% | % Protected Animals ([2]; Time 120 min.): 46% | % Protected Animals ([2]; Time 180 min.): 37% | % Protected Animals ([2]; Time 240 min.): 10% | duration of protection against pentamethylenetetrazol compared with compounds 3 or 4 ([2]; rat, in vivo): protects against pentamethylenetetrazol for longer periods of time than compounds 3 or 4 | ED50 ([7]; Table 11, species not given): 857 mg/kg | hypnotic activity compared with Compounds 3 or 4 ([7]; in vivo): lower hypnotic activity | Duration of narcosis ([8]; 1.0 mg/kg oral): 70.7 min | Duration of narcosis ([8]; 2.0 mg/kg oral): 111.3 min | effect on amygdaloid after-discharge [3]: lasting inhibitory effect; also recorded: slightly more pronounced | Duration of Amygdaloid After-Discharge ([3]; 45 Mins.): 15 s and 0 s and 35 s and 22 s | Duration of Amygdaloid After-Discharge ([3]; 90 Mins.): 17 s and 0 s and 27 s | Duration of Amygdaloid After-Discharge ([3]; 135 Mins.): 46 s and 0 s and 37 s | Duration of Amygdaloid After-Discharge ([3]; 180 Mins.): 17 s and 0 s and 34 s | Duration of Amygdaloid After-Discharge ([3]; 225 Mins.): 42 s and 46 s and 0 s and 35 s | Duration of Amygdaloid After-Discharge ([3]; 270 Mins.): 45 s and 62 s and 0 s and 30 s | LD50 [9]: 6490 mg/kg | Percentage of animals falling within 2 minutes ([10]; 3 mg/kg oral, 30 minutes after administration): 0% | Percentage of animals falling within 2 minutes ([10]; 3 mg/kg oral, 60 minutes after administration): 0% | Percentage of animals falling within 2 minutes ([10]; 6 mg/kg oral, 30 minutes after administration): 50% | Percentage of animals falling within 2 minutes ([10]; 6 mg/kg oral, 60 minutes after administration): 17% | Percentage of animals falling within 2 minutes ([10]; 12 mg/kg oral, 30 minutes after administration): 100% | Percentage of animals falling within 2 minutes ([10]; 12 mg/kg oral, 60 minutes after administration): 50%
